Results reported in US12351570B2 (MERCK PATENT GMBH, priority 2018, dated 2025).

Test system: MDA-MB-231 cells
Assay: Extracellular lactate production inhibition after 4 h, MDA-MB-231
Details: Homo sapiens, MDA-MB-231

| Structure (SMILES) | IC50 [nM] |
| --- | --- |
| COc1ccc(S(=O)(=O)Nc2ccccc2C#Cc2ccc(C(N)=O)nc2)c2ncccc12 [Compound 154, 5-{2-[2-(5-methoxyquinoline-8-sulfonamido)phenyl]ethynyl}pyridine-2-carboxamide] | 1000 to 100000 |
| COc1ccnc2c(S(=O)(=O)Nc3ccccc3C#Cc3ccc(C(=O)O)nc3)cccc12 [Compound 324, 5-{2-[2-(4-methoxyquinoline-8-sulfonamido)phenyl]ethynyl}pyridine-2-carboxylic acid] | 100 to 1000 |
| CNc1cc(C#Cc2cc(Cl)ccc2NS(=O)(=O)c2ccc(OC)c(C)c2C)cnc1C(=O)O [Compound 403, 5-{2-[5-chloro-2-(4-methoxy-2,3-dimethylbenzenesulfonamido)phenyl]ethynyl}-3-(methylamino)pyridine-2-carboxylic acid] | 10 to 100 |
| O=C(O)c1ccc(C#Cc2ccccc2NS(=O)(=O)c2c(Cl)nc3sccn23)cn1 [Compound 98, 5-[2-(2-{6-chloroimidazo[2,1-b][1,3]thiazole-5-sulfonamido}phenyl)-ethynyl]pyridine-2-carboxylic acid] | 1000 to 100000 |
| COc1ccc(NS(=O)(=O)c2ccc(OC)c3cccnc23)c(C#Cc2ccc(C(=O)O)nc2)c1 [Compound 397, 5-[5-Methoxy-2-(5-methoxy-quinoline-8-sulfonylamino)-phenylethynyl]-pyridine-2-carboxylic acid] | 10 to 100 |
| COc1ccc(S(=O)(=O)Nc2ccccc2C#Cc2ccc(C(=O)O)c(C#N)c2)c2ccccc12 [Compound 21, 2-cyano-4-{2-[2-(4-methoxynaphthalene-1-sulfonamido)phenyl]ethynyl}benzoic acid] | 1000 to 100000 |
| COc1ccc(S(=O)(=O)Nc2ccc(F)cc2C#Cc2ccc(C(=O)NC#N)nc2)c2ccccc12 [Compound 256, N-cyano-5-{2-[5-fluoro-2-(4-methoxynaphthalene-1-sulfonamido)-phenyl]ethynyl}pyridine-2-carboxamide] | 1000 to 100000 |
| COc1cc(S(=O)(=O)Nc2ccccc2C#Cc2ccc(C(=O)O)cc2)cc2ccccc12 [Compound 258, 4-[2-(4-Methoxy-naphthalene-2-sulfonylamino)-phenylethynyl]-benzoic acid] | 100 to 1000 |
| O=C(O)c1ccc(C#Cc2ccccc2S(=O)(=O)Nc2cccc3cccnc23)cn1 [Compound 432, 5-(2-{2-[(quinolin-8-yl)sulfamoyl]phenyl}ethynyl)pyridine-2-carboxylic acid] | 1000 to 100000 |
| Cc1ccc2cccnc2c1S(=O)(=O)Nc1ccc(Cl)cc1C#Cc1cnc(C(=O)O)c2ccccc12 [Compound 234, 4-{2-[5-chloro-2-(7-methylquinoline-8-sulfonamido)phenyl]ethynyl}isoquinoline-1-carboxylic acid] | 10 to 100 |
| O=C(O)c1ccc(C#Cc2ccccc2NS(=O)(=O)c2csc3ccccc23)cc1 [Compound 83] | 100 to 1000 |
| O=C(O)c1ccc(C#Cc2ccccc2NS(=O)(=O)c2cc3ccccc3o2)cc1 [Compound 73, 4-{2-[2-(1-benzofuran-2-sulfonamido)phenyl]ethynyl}benzoic acid] | 100 to 1000 |
| COc1ccc(S(=O)(=O)Nc2ccccc2C#Cc2cnc(C(=O)O)cc2C)c2ncccc12 [Compound 110, 5-{2-[2-(5-methoxyquinoline-8-sulfonamido)phenyl]ethynyl}-4-methylpyridine-2-carboxylic acid] | 10 to 100 |
| COc1ccc(S(C)(=O)=Nc2ccccc2C#Cc2cnc(C(=O)O)c3ccccc23)cc1 (centres unmarked) [Compound 449, 4-[2-(2-{[(4-methoxyphenyl)(methyl)oxo-λ6-sulfanylidene]amino}phenyl)ethynyl]-isoquinoline-1-carboxylic acid] | 1000 to 100000 |
| O=C(O)c1ccc(C#Cc2ccccc2NS(=O)(=O)c2cccc(N3CCOCC3)c2)cn1 [Compound 105, 5-(2-{2-[3-(morpholin-4-yl)benzenesulfonamido]phenyl}-ethynyl)pyridine-2-carboxylic acid] | 1000 to 100000 |
| O=C(O)c1ccc(C#Cc2ccccc2NS(=O)(=O)c2c(Br)ccc3ccc(Cl)nc23)cn1 [Compound 315, 5-{2-[2-(7-bromo-2-chloroquinoline-8-sulfonamido)phenyl]ethynyl}pyridine-2-carboxylic acid] | 10 to 100 |
| O=C(O)c1ccc(C#Cc2ccccc2NS(=O)(=O)c2cc(Cl)c(Cl)s2)cc1 [Compound 275, 4-{2-[2-(4,5-dichlorothiophene-2-sulfonamido)phenyl]ethynyl}benzoic acid] | 1000 to 100000 |
| O=C(O)c1ccc(C#Cc2ccccc2NS(=O)(=O)c2ccc3ccccc3c2)cc1Cl [Compound 28, 2-chloro-4-{2-[2-(naphthalene-2-sulfonamido)phenyl]ethynyl}benzoic acid] | 100 to 1000 |
| O=C(O)c1ccc(C#Cc2ccccc2NS(=O)(=O)c2cc3cc(Cl)ccc3s2)cc1 [Compound 281, 4-{2-[2-(5-chloro-1-benzothiophene-2-sulfonamido)phenyl]ethynyl}benzoic acid] | 100 to 1000 |

| Structure (SMILES) | IC50 [nM] |
| --- | --- |
| CCc1ccc2cccnc2c1S(=O)(=O)Nc1ccccc1C#Cc1cnc(C(=O)O)cc1OC [Compound 369, 5-{2-[2-(7-ethylquinoline-8-sulfonamido)phenyl]ethynyl}-4-methoxypyridine-2-carboxylic acid] | 1 to 10 |
| COc1ccc(S(=O)(=O)Nc2ccccc2C#Cc2ccc(C(=O)NS(C)(=O)=O)cc2)c2ccccc12 [Compound 252, 4-Methoxy-naphthalene-1-sulfonic acid [2-(4-methanesulfonylaminocarbonyl-phenylethynyl)-phenyl]-amide] | 1000 to 100000 |
| COc1ccc(S(=O)(=O)Nc2ccccc2C#Cc2ccc(C(=O)O)cc2)c2c1CCCC2 [Compound 11, 4-{2-[2-(4-methoxy-5,6,7,8-tetrahydronaphthalene-1-sulfonamido)phenyl]ethynyl}benzoic acid] | 100 to 1000 |
| Cc1cc(C#Cc2ccccc2NS(=O)(=O)c2cccc3cccnc23)cnc1C(=O)O [Compound 59, 3-methyl-5-{2-[2-(quinoline-8-sulfonamido)phenyl]ethynyl}pyridine-2-carboxylic acid] | 100 to 1000 |
| COc1cc(C(=O)O)ncc1C#Cc1cc(Br)ccc1NS(=O)(=O)c1c(C)ccc2cccnc12 [Compound 352, 5-{2-[5-bromo-2-(7-methylquinoline-8-sulfonamido)phenyl]ethynyl}-4-methoxypyridine-2-carboxylic acid] | 1 to 10 |
| COc1ccc(S(=O)(=O)Nc2ccccc2C#Cc2cc(F)c(C(=O)O)c(F)c2)c2ccccc12 [Compound 27, 2,6-difluoro-4-{2-[2-(4-methoxynaphthalene-1-sulfonamido)phenyl]ethynyl}benzoic acid] | 1000 to 100000 |
| COc1cc(C(=O)O)ncc1C#Cc1cc(Cl)ccc1NS(=O)(=O)c1ccc(OC)c(C)c1C [Compound 243, 5-{2-[5-chloro-2-(4-methoxy-2,3-dimethylbenzenesulfonamido)-phenyl]ethynyl}-4-methoxypyridine-2-carboxylic acid] | 1 to 10 |
| CNc1ccnc2c(S(=O)(=O)Nc3ccccc3C#Cc3ccc(C(=O)O)nc3)cccc12 [Compound 423, 5-[2-(4-Methylamino-quinoline-8-sulfonylamino)-phenylethynyl]-pyridine-2-carboxylic acid] | 1000 to 100000 |
| C#CCOc1ccnc2c(S(=O)(=O)Nc3ccccc3C#Cc3ccc(C(=O)O)nc3)cccc12 [Compound 354, 5-(2-{2-[4-(prop-2-yn-1-yloxy)quinoline-8-sulfonamido]phenyl}ethynyl)pyridine-2-carboxylic acid] | 100 to 1000 |
| Cc1ccc2cccnc2c1S(=O)(=O)Nc1ccccc1C#Cc1ccc(C(=O)OCCCCN(C)C)nc1 [Compound 407, 4-(dimethylamino)butyl 5-{2-[2-(7-methylquinoline-8-sulfonamido)phenyl]ethyny}pyridine-2-carboxylate] | 1000 to 100000 |
| NC(=O)N(Cc1ccc2ccccc2c1)c1ccccc1C#Cc1ccc(C(=O)O)nc1 [Compound 147, 5-[2-(2-{carbamoyl[(naphthalen-2-yl)methyl]amino}phenyl)ethynyl]pyridine-2-carboxylic acid] | 100 to 1000 |
| COC(=O)c1cc(C)c(C#Cc2cc(F)ccc2NS(=O)(=O)c2c(C)ccc3cccnc23)cn1 [Compound 146, methyl 5-{2-[5-fluoro-2-(7-methylquinoline-8-sulfonamido)phenyl]ethynyl}-4-methylpyridine-2-carboxylate] | 10 to 100 |
| O=C(O)c1ncc(C#Cc2ccccc2NS(=O)(=O)c2cccc3c(Cl)ccnc23)cc1Cl [Compound 323, 3-chloro-5-{2-[2-(4-chloroquinoline-8-sulfonamido)phenyl]ethynyl}pyridine-2-carboxylic acid] | 1000 to 100000 |
| O=C(O)c1ccc(C#Cc2ccccc2NS(=O)(=O)c2cccc3c(Cl)ccnc23)cn1 [Compound 266, 5-[2-(4-Chloro-quinoline-8-sulfonylamino)-phenylethynyl]-pyridine-2-carboxylic acid] | 10 to 100 |
| CCc1cc(C#Cc2ccccc2NS(=O)(=O)c2c(CC)ccc3cccnc23)cnc1C(=O)O [Compound 375, 3-Ethyl-5-[2-(7-ethyl-quinoline-8-sulfonylamino)-phenylethynyl]-pyridine-2-carboxylic acid] | 1 to 10 |
| O=C(O)c1ccc(C#Cc2ccccc2NS(=O)(=O)c2cccc3c2OC(F)(F)O3)cc1 [Compound 251, 4-[2-(2,2-Difluoro-benzo[1,3]dioxole-4-sulfonylamino)-phenylethynyl]-benzoic acid] | 1000 to 100000 |
| COc1ccc(S(=O)(=O)Nc2ccccc2C#Cc2cnc3c(c2)CN(C)C3=O)c2ncccc12 [Compound 245, 5-methoxy-N-[2-(2-{6-methyl-7-oxo-5H,6H,7H-pyrrolo[3,4-b]pyridin-3-yl}ethynyl)phenyl]quinoline-8-sulfonamide] | 1000 to 100000 |
| COc1cc(C(=O)O)ncc1C#Cc1ccccc1NS(=O)(=O)N1CCC(C)C2CCCCC21 (centres unmarked) [Compound 222, 4-methoxy-5-[2-(2-{[(4-methyl-deca-hydroquinolin-1-yl)sulfonyl]amino}-phenyl)ethynyl]pyridine-2-carboxylic acid] | 10 to 100 |
| CC(C)(C)OC(=O)NCCOCCOCCOc1ccc(NS(=O)(=O)c2cccc3cccnc23)c(C#Cc2ccc(C(=O)O)nc2)c1 [Compound 331, 5-[5-{2-[2-(2-tert-Butoxycarbonylamino-ethoxy)-ethoxy]-ethoxy}-2-(quinoline-8-sulfonylamino)-phenylethynyl]-pyridine-2-carboxylic acid] | 1000 to 100000 |
